Measurements reported in patent publication US20250009698A1, “NERVONIC ACID-BASED COMPOSITIONS AND METHODS” (REGENTS OF THE UNIVERSITY OF MINNESOTA, priority 2023, published 2025).
Entries after “also recorded” stand apart in the source; their conditions may differ.

Key:
[1] = test system: ALD cells (cALD and AMN cells); experiment: Basal energy production measured as ATP content in ALD cells; type: cell-based, human
Method: (§1) In vitro and in vivo experiments were done to evaluate the ability of nervonic acid to modulate ALD associated biochemistry in various ALD phenotypes including childhood cerebral ALD (cALD) and adrenomyeloneuropathy (AMN). Nervonic acid (NA) was compared to the erucic acid (EA), the active ingredient in Lorenzo's oil. […] Additionally, the potential of NA and EA to alter the basal energy production measured as ATP content in ALD cells was assessed (Terluk et al., Neurotherapeutics 2022 April; 19(3):1007-1017. doi: 10.1007/s13311-022-01226-7). Following a five-day treatment with NA, cellular ATP content was increased in cALD cells (FIG. 6).

ALD double knockout mice = experiment: In vivo mouse study, four-week NA or EA diet, fatty acids in plasma and tissues; settings: for C26:0 in tissues, 3% NA group versus 3% EA group: comparison of 3% NA and 3% EA treatment groups
Method: An in vivo ALD double knockout mice model was used to evaluate the effect of NA or EA on various fatty acid concentrations in the tissue of the mice see Example). Mice were fed a diet containing 0.6% NA, 3% NA, or 3% EA for four weeks (FIG. 20). Blood samples taken every week and tissues harvested after four weeks of treatment were analyzed for fatty acid concentration.
Double ALD knockout mice were grown to eight weeks. At eight week the mice were split into four treatment groups. Three of the treatment groups received nervonic acid (NA, 0.6% or 3%) or erucic acid (EA, 3%) through their daily diet. Specifically, mice were fed with rodent chow (TEKLAD Rodent Chow available from Inotiv in West Lafayette, IN) mixed with the desired amount of NA or EA. Food was available continuously and new food was added every other day. Daily food intake was weighed and mouse weighed every week. Blood samples were taken weekly for four weeks. Following four weeks, the mice were sacrificed, and their tissues analyzed for fatty acid content. GCMS was used for lipid fatty acid content analysis and LC-MS/MS was used to analyze Lyso-PC.

[2] = preliminary animal studies; cited from earlier work
AMN and cALD cells = experiment: Fatty acid levels in ALD cells treated with NA or EA; type: cell-based, human; settings: 0, 5, 20, 50 μM
Method: as §1

[3] = test system: Human dermal AMN fibroblasts (GM17819); experiment: Imaging study of oxidative stress (CELLROX, MITOSOX); type: cell-based; settings: five days, compared to vehicle and control
Method: A second set of in vitro experiments were conducted to more thoroughly understand the mechanism of action of nervonic acid in the mitochondria of ALD cells. AMN patient derived fibroblasts were treated with various concentrations of NA (5 μM, 20 μM, and 50 μM in ethanol) and evaluated for mitochondrial oxidative stress by evaluating reactive oxygen species (see Example) and mitochondrial respiration (see Example). FIG. 9 and FIG. 11 show images of the NA AMN treated cells stained for reactive oxygen species (green) or mitochondrial superoxide (red) and nuclei (blue; see Imaging Study in Example). FIG. 10 and FIG. 12 show bar graphs quantifying the reactive oxygen species fluorescence of FIG. 9 and the mitochondrial superoxide fluorescence of FIG. 11.
Human dermal fibroblasts (GM17819) were seeded on chamber slides with a density of 12,500 cells per well and incubated at 37° C. At ˜80% confluence, cells were treated with ethanol (vehicle, <0.1%) and NA (5 μM, 20 μM, or 50 μM) for five days. Untreated AMN fibroblasts were considered the control group. […] Cell localization and fluorescence visualization were then completed using a fluorescence microscope (BZ-X810; Keyence, Osaka, Japan). […]

AMN cells (GM17819) = experiment: Seahorse cell mitochondrial stress test (MST), oxygen consumption rate; type: cell-based, human; settings: 5, 20, 50 μM NA, 24 hours
Method: Mitochondrial function was assessed using a cell mitochondrial stress test (MST; see Seahorse study in the Example). As depicted in FIG. 8, in this experiment, inhibitors of various electron transport chain components (oligomycin; FCCP/carbonyl cyanide 4-(trifluoromethoxy)phenylhydrazone; rotenone and antimycin A) are sequentially incubated with cells and the oxygen consumption rate (OCR) measured following each incubation to evaluate various individual parameters of respiration. The OCR of cells that were treated with NA was compared with cells not treated with NA. FIG. 13A-13, FIG. 14A-B, FIG. 15A-B, and FIG. 16A-B are plots showing the results of the respiration test.
Mitochondrial function was assessed on AMN cells (GM17819) using the Cell Mito Stress Test (CMST) in an XFe96 Extracellular Flux Analyzer (Agilent Technologies, Inc., Santa Clara, CA). Cells (1.25×10^4 cells/well) were seeded overnight on Cell-Tak coated XFe96 microplate and then treated with NA (5 μM, 20 μM, or 50 μM) for 24 hours. For the CMST measurements, the culture medium was replaced with XF DMEM medium supplemented with glutamine 4 mM, sodium pyruvate 1 mM, and glucose 24.9 mM, pH 7.4 and 37° C. Oxygen consumption rate (OCR) was detected at baseline and after the following injections: 1) oligomycin (3 μM), 2) carbonyl cyanide 4-(trifluoromethoxy)phenylhydrazone/FCCP (2 μM), and 3) rotenone (1 μM) plus antimycin A (1 μM). This protocol allowed the analysis of the following parameters: basal respiration, ATP production, proton leak, maximal respiration, spare respiratory capacity, non-mito respiration, coupling efficiency percent, and spare respiratory capacity percent. OCR data were normalized by the number of cells determined by using CyQUANT NF Cell Proliferation Assay Kit (Thermo Fisher Scientific, Inc., Waltham, MA) and a fluorescence microplate reader. OCR results were generated by SEAHORSE WAVE PRO (Agilent Technologies, Inc., Santa Clara, CA) and analyzed with the SEAHORSE Analytics software (Agilent Technologies, Inc., Santa Clara, CA).

AMN cells = experiment: Long chain fatty acid (LCFA) oxidation stress test with UK5099, BPTES, etomoxir; type: cell-based, human; settings: 20 μM NA, 24 h, with inhibitors UK, BP, ETO alone or combined
Source text: A long chain fatty acid (LCFA) oxidation stress test (SEAHORSE XF assay; Agilent Technologies, Inc., Santa Clara, CA) was used to assess how NA affects mitochondrial respiration when various metabolic pathways of mitochondria are inhibited. Specific inhibitors to block glucose, fatty acid or glutamine pathways were used alone or in combination to understand the substrate specific effects of NA. In this assay the mitochondrial stress test (MST) is repeated with one or more inhibitors of glycolysis, the TCA cycle, electron transport, and oxidative phosphorylation pathways are present. Etomoxir (Eto) is used to inhibit carnitine palmitoyl transferase 1a (CPT1a), an enzyme important in the mechanism for beta oxidation (degradation) of long chain fatty acids. UK5099 (UK) is used to inhibit transport of glucose and/or pyruvate by targeting the mitochondrial pyruvate carrier (MPC). BPTES (BP) is used to inhibit glutaminase GLS1, an enzyme that converts glutamine into glutamate, a substrate for further oxidation in the TCA cycle. AMN cells were incubated with one or more of the inhibitors with or without 20 μM NA and run through the mitochondrial stress test. The results are shown in FIG. 17, FIG. 18, and FIG. 19.

[4] = Pharmacokinetics of NA study, single oral dose; type: in vivo, mouse; settings: male, ALD gene-knockout (ABCD1-), mouse, in vivo; single oral 10 mg; plasma; NCA
Method: (§2) Pharmacokinetic studies were conducted to determine the key pharmacokinetic parameters of NA in an ALD mouse model and assess alterations in plasma C26:0 levels following single-dose NA administration. The pharmacokinetic parameters of NA were defined for the first time in rodents (FIG. 35-39). […] The concentrations of NA in the brain (FIG. 37) and in the liver (FIG. 38) were determined.
(§3) Pharmacokinetic studies were conducted using 12-week-old male ALD gene-knockout mice (KO; ABCD1-) following a single oral administration of 10 mg of NA. Blood samples were collected from the submandibular vein prior to dosing and at 0.25, 0.5, 1, 2, 6, 18, 24, 30, 48, 72, and 168 hours post-administration. The concentrations of NA in plasma and tissues were analyzed at the Kennedy Krieger Institute using GC/MS. Pharmacokinetic parameters including systemic clearance (CL/F), volumes of distribution (V/F), elimination half-life (ti/2), and the area under the curve (AUC) were estimated using PHOENIX (Certara USA, Radnor, PA) with non-compartmental analysis (NCA).

[5] = test system: ALD gene-knockout mice (KO; ABCD1-); experiment: Pharmacokinetics of NA study, single oral dose; type: in vivo, mouse
Method: as §2, §3

[6] = cited from earlier work
ELOVL1 = molecular target: T1, ELOVL1 (Homo sapiens, UniProt Q9BW60); settings: earlier studies; cited from earlier work
T1 sequence (Q9BW60 1-279): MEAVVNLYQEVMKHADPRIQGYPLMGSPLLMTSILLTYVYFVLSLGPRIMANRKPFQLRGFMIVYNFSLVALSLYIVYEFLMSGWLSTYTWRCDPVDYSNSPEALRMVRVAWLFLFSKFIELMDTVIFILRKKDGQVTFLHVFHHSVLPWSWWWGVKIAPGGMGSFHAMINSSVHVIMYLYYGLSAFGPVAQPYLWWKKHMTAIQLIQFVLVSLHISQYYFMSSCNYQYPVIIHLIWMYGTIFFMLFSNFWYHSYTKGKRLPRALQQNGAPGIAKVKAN

[7] = test system: ALD patient-derived fibroblasts; settings: earlier studies; cited from earlier work

## CCCCCCCC/C=C\CCCCCCCCCCCC(=O)O [EA, erucic acid, reference compound]
[1]; 20 μM, compared to vehicle-treated cells, five-day treatment
  cellular ATP content (energy production) at 20 μM: did not show a marked increase
ALD double knockout mice; 3% EA diet, four weeks
  C22:1 amount in brain: did not show an elevation
ALD double knockout mice; compared to control group, 3% EA diet, four weeks
  C22:1 (EA) levels in liver, kidney, heart, and adrenal: significant elevation
ALD double knockout mice
  C26:0 in tissues, 3% NA group versus 3% EA group: no significant difference; also recorded: comparable
ALD double knockout mice; only after 4-week treatment with 3% EA
  C22:1 (EA) level in plasma: significant increase
[2]
  cardiotoxicity: associated with cardiotoxicity

## CCCCCCCC/C=C\CCCCCCCCCCCCCC(=O)O [NA, Nervonic acid]
AMN and cALD cells
  amount of C26:0 fatty acid: dose-dependent effect on decreasing
[1]; cALD cells, five-day treatment
  cellular ATP content: increased
[1]; concentrations other than 20 μM, cALD and AMN cells
  cellular ATP content at other concentrations: a trend was observed
[3]; 5 μM or 20 μM
  mitochondrial superoxide (MITOSOX fluorescence): decrease
[3]; 5 μM, 20 μM, or 50 μM
  reactive oxygen species (CELLROX fluorescence): decrease
AMN cells (GM17819)
  ATP production: increase
  basal respiration: increase
  maximal respiration: increase
  spare respiratory capacity: increase
AMN cells
  acute response: No significant change
  basal respiration: No significant change
  maximal respiration: No significant change
ALD double knockout mice; after 4-week treatment, dose-dependent manner
  plasma C26:0 Lyso-phosphatidylcholine (C26:0 LPC): significantly reduced
ALD double knockout mice; compared to control group, NA diet, four weeks
  C24:1 levels in liver, kidney, heart, and adrenal gland: significant elevation
ALD double knockout mice
  C26:0 in tissues, 3% NA group versus 3% EA group: no significant difference; also recorded: comparable
ALD double knockout mice; diet 0.6% or 3% NA
  plasma C26:0: dose dependent decrease
ALD double knockout mice; following four-week treatment
  NA level in plasma at steady state: approximately 70 pig/mL
ALD double knockout mice; intake of NA
  C26:1 levels in plasma: significant increase
ALD double knockout mice; liver, kidney, brain, heart, adrenal, four weeks
  C26:0 levels in tissues: decrease
[4]
  AUC: 2330 µg·h/mL
  Cmax: 32700 ng/mL
  Tmax: 2 h
  half-life: 62.3 h
[5]; single oral 10 mg, plasma, NCA
  CL/F: 8.509 mL/h
  Ke: 0.01113 h⁻¹
  V/F: 764.7 mL
[5]; single oral dose 10 mg NA
  plasma C26:0 LPC: does not significantly affect
  plasma C26:0 levels: does not significantly affect
[6]; dimethyl sulfoxide
  solubility in dimethyl sulfoxide: approximately 20 mg/ml
[6]; dimethylformamide
  solubility in dimethylformamide: approximately 20 mg/ml
[6]; ethanol
  solubility in ethanol: approximately 10 mg/ml
ELOVL1
  inhibition of ELOVL1: competitively inhibit
[7]
  accumulation of C26:0: biochemically reverse
